Source: article PMC9571290, “Preliminary Structure–Activity Relationship Study of the MMV Pathogen Box Compound MMV675968 (2,4-Diaminoquinazoline) Unveils Novel Inhibitors of Trypanosoma brucei brucei” (Molecules, 2022)
Read-outs that look alike come from different tables or passages of the source.

What was measured:
[1] = test system: bloodstream forms of Trypanosoma brucei brucei; test: resazurin-based antitrypanosomal inhibition assay; assay type: cell-based; details: for pIC50 T. b. b.: Table 2
Experimental: Parasites were axenically cultivated in sterile vented flasks containing complete Hirumi’s modified Iscove’s medium 9 (HMI-9) [500 mL IMDM (Iscove’s modified Dulbecco’s medium) (Gibco, Waltham, MA, USA) supplemented with 10% (v/v) heat-inactivated fetal bovine serum (HIFBS) (Sigma Aldrich), 10% (v/v) serum plus (Sigma Aldrich), HMI-9 supplement (1 mM hypoxanthine, 0.16 mM thymidine, 50 µM bathocuproine disulfonic acid, 1.5 mM cysteine, 1.25 Mm pyruvic acid, 0.2 mM 2-mercaptoethanol (Sigma Aldrich)), and 1% (v/v) penicillin–streptomycin (Sigma Aldrich) and incubated at 37 °C in a 5% CO2 atmosphere.
The in vitro inhibitory potency of the 400 MMVPB compounds against bloodstream forms of Trypanosoma brucei brucei was evaluated using the resazurin-based inhibition assay as previously described. Briefly, parasites at their mid-logarithmic growth phase were counted, and the cell density was adjusted with fresh complete HMI-9 medium to 2 × 10^5 trypanosomes per mL. Then, 90 µL of parasite suspension was then distributed into the wells of 96-well flat-bottomed plates containing 10 µL of compounds for a final test concentration of 10 µM. […] Each assay plate was set up in duplicate and repeated two times. The percent parasite inhibition was determined for each compound based on fluorescence readouts relative to the mean fluorescence of negative control wells.
y = 100/[1+ 10^(logIC50/99-x)H], where H is the hill coefficient or slope factor [60].

[2] = in vitro; details: African green monkey
Experimental: (§1) The resulting pellet was resuspended and counted in a Neubauer chamber in the presence of trypan blue to exclude nonviable cells colored in blue. Once the cell load was estimated, they were either used for the next passage in a new flask or processed for the cytotoxicity assay.
(§2) Briefly, Vero cells at a density of 10^4 cells per well were plated in 100 µL of complete DMEM and incubated overnight to allow cell attachment. Plates were then controlled under an inverted fluorescence microscope (Lumascope LS520) to ensure adherence, sterility and cell integrity. Thereafter, culture medium from each well was carefully emptied, and plates were filled with 90 µL of fresh complete medium followed by the addition of 10 µL of serial 5-fold dilutions of compound solutions. […] Fluorescence was then read using a Magelan Infinite M200 fluorescence multiwell plate reader (Tecan) with excitation and emission wavelengths of 530 and 590 nm, respectively. The percentage of cell viability was calculated from readouts, and the median cytotoxic concentration (CC50) for each compound was deduced from concentration–response curves using GraphPad Prism 8.0 software as described above. Selectivity indexes were then determined for each test substance as follows: SI = CC50(Vero cells)/IC50(T. brucei brucei).

[3] = test system: Vero cells; test: cytotoxicity against Vero cells (resazurin viability assay); details: read-out: CC50 Vero; Table 2
Experimental: as §1, §2

[4] = test system: kinetoplastids (T. brucei brucei and T. brucei rhodesiense); parameters: method as in MMV Pathogen Box supporting information; details: against kinetoplastids; ref MMV Pathogen Box supporting information; read-out: Reported IC50; cited from earlier work
[5] = test system: bloodstream form of Trypanosoma brucei brucei; test: parasite-killing kinetics and cidal or static effect; assay type: cell-based; details: IC90 and IC99; removal at 4 h (10) or 24 h (7), subculture in inhibitor-free medium
Experimental: Thus, they were selected, and their effect at various concentrations was assessed on the proliferation rate of the bloodstream form of Trypanosoma brucei brucei using microscopic cell count. […] After specified exposure time intervals (0, 4, 8, 12, 24, 30, 36, 48, 60, 72 h), the content of each well was harvested and counted on a Neubauer hemacytometer to determine the number of mobile parasites. The obtained values were used to plot the growth curves as parasite density (cells/mL) versus incubation time using GraphPad Prism 8.0 software.
Therefore, the ability of parasites to recover post exposure to inhibitors 10 and 7 was further evaluated. […] After that, the cells were washed three times with fresh complete medium by centrifugation at 2500 rpm for 7 min. Cell pellets were thereafter resuspended in fresh complete culture medium in a 24-well plate and subcultured under the same conditions for 68 h for compound 10 and 48 h for compound 7 to achieve the complete parasite growth pattern. Thereafter, cells were enumerated using the Neubauer cell counter at each time point. The assay was performed in duplicate, and the mean cell counts were plotted […] against time using GraphPad Prism 8.0 to assess the cidal or static effect of inhibitors.

[6] = Trypanosoma brucei, Table 4, analogs of MMV675968, solid material, read-out: IC50 ± SD T. b. b.
[7] = Trypanosoma brucei, Table 1, reference drugs included in MMVPB, read-out: IC50 ± SD T. b. b.
[8] = Trypanosoma brucei, Table 1, negative log of IC50 in molar, read-out: pIC50 T. b. b. (converted)
[9] = Table 2, MMVPB compounds with known anti-kinetoplastid activity, read-out: IC50 ± SD T. b. b.

Structure (SMILES) | CC50 at 48 h [2] | IC50 [1, 9] | pIC50 T. b. b. ([1]; negative log of IC50 in molar) | CC50 [3] | IC50 [4] | also measured
COc1ccc(NCc2cnc(N)nc2N)cc1 [Analog 17] | > 100 µM |  |  |  |  | IC50 [1, 6]: > 10000 nM
COc1cccc(CNCc2cnc(N)nc2N)c1 [Analog 18] | > 100 µM |  |  |  |  | IC50 [1, 6]: > 10000 nM
COc1cccc(CNC(=O)c2cnc(N)nc2N)c1 [Analog 19] | > 100 µM |  |  |  |  | IC50 [1, 6]: > 10000 nM
COc1ccc(NC(=O)c2cnc(N)nc2N)cc1 [Analog 20] | > 100 µM |  |  |  |  | IC50 [1, 6]: > 10000 nM
COc1ccccc1NC(=O)c1cnc(N)nc1N [Analog 21] | > 100 µM |  |  |  |  | IC50 [1, 6]: > 10000 nM
Nc1ncc(C(=O)Nc2cccnc2)c(N)n1 [Analog 22] | > 100 µM |  |  |  |  | IC50 [1, 6]: > 10000 nM
Cc1ccccc1NC(=O)c1cnc(N)nc1N [Analog 23] | > 100 µM |  |  |  |  | IC50 [1, 6]: > 10000 nM
COc1ccc(NC(=O)c2cnc(N)nc2N)cc1OC [Analog 24] | > 100 µM |  |  |  |  | IC50 [1, 6]: > 10000 nM
OC(c1cc(C(F)(F)F)nc2c(C(F)(F)F)cccc12)C1CCCCN1 (centres unmarked) [MMV000016, Mefloquine, reference compound] | 11.3 µM |  |  |  |  | IC50 [1, 7]: 1600 ± 8 nM; IC50 [1, 8]: 1580 nM
CCN(CC)CCCCCCNc1cc(OC)cc2c(C)ccnc12 [MMV000063, Sitamaquine, reference compound] | > 100 µM |  |  |  |  | IC50 [1, 7]: 1500 ± 30 nM; IC50 [1, 8]: 1580 nM
CC1CS(=O)(=O)CCN1/N=C/c1ccc([N+](=O)[O-])o1 (centres unmarked) [MMV001499, Nifurtimox, reference compound] | > 100 µM |  |  |  |  | IC50 [1, 7]: 200 ± 90 nM; IC50 [1, 8]: 200 nM
CNC(=O)C1Cc2ccccc2N1C(=O)Cc1ccc(F)cc1 (centres unmarked) [MMV188296] |  | 1010 ± 250 nM | 5.99 | > 100 µM | 490 nM | 
Cc1ccc(C(=O)Nc2ccc(S(=O)(=O)O)c3cc(S(=O)(=O)O)cc(S(=O)(=O)O)c23)cc1NC(=O)c1cccc(NC(=O)Nc2cccc(C(=O)Nc3cc(C(=O)Nc4ccc(S(=O)(=O)O)c5cc(S(=O)(=O)O)cc(S(=O)(=O)O)c45)ccc3C)c2)c1 [MMV637953, Suramine, reference compound] | > 100 µM |  |  |  |  | IC50 [1, 7]: 80 ± 10 nM; IC50 [1, 8]: 81.3 nM
O=C(Nc1ccc2c(c1)B(O)OC2)c1ccccc1C(F)(F)F [MMV652003] |  | 60 ± 40 nM | 7.22 | > 100 µM | 150 nM | 
Cc1nc(-c2ccccn2)nc(N2CCC(Cc3ccccc3)C2)c1Cl (centres unmarked) [MMV659004] |  | 1900 ± 3 nM | 5.72 | > 100 µM | 6600 nM | 
COc1ccc(C(=N)N)cc1-c1cn(-c2ccc(C(=N)N)cc2)nn1 [MMV675998] |  | 340 ± 30 nM | 6.47 | > 100 µM | 250 nM | 
CO[C@@H](C(=O)N1Cc2[nH]nc(NC(=O)c3ccc(N4CCN(C)CC4)cc3)c2C1)c1ccccc1 [MMV676600] |  | 650 ± 7 nM | 6.18 | > 100 µM | 1020 nM | 
Cc1ncc(-c2ccnc(Nc3ccc(S(C)(=O)=O)cc3)n2)n1C(C)C [MMV676604] |  | 36 ± 1 nM | 7.44 | 8.3 ± 1.2 µM | 260 nM | 

Structure (SMILES) | CC50 at 48 h [2] | IC50 [1, 9] | pIC50 T. b. b. ([1]; negative log of IC50 in molar) | CC50 [3] | IC50 [4] | also measured
c1ccc(Oc2ccc(-c3cc(N4CCNCC4)[nH]n3)cc2)cc1 [MMV687706] |  | 1900 ± 6 nM | 5.72 | 41 ± 6.5 µM | 990 nM | 
N=C(N)Nc1ccc(-c2ccc(-c3ccc(N=C(N)N)c(Cl)c3)o2)cc1Cl [MMV688271] |  | 1070 ± 160 nM | 5.97 | > 100 µM | 600 nM | 
NCCN(C(=O)c1ccc(Cl)cc1Cl)c1ccc(OCc2ccc(Cl)cc2)cc1 [MMV688371] |  | 1600 ± 100 nM | 5.79 | 7.5 ± 0.1 µM | < 130 nM | 
CC1=Nc2ccc(Cl)cc2C(c2ccccc2)N1CCNC(=O)CN(C)C (centres unmarked) [MMV688410] |  | 8500 ± 100 nM | 5.07 |  | 3800 nM | 
CCCCN(CCCC)c1c(C#N)cc(S(=O)(=O)Nc2ccccc2)cc1C#N [MMV688467] |  | 3100 ± 500 nM | 5.50 | > 100 µM | 300 nM | 
N=C(N)c1ccc(-c2cc(-c3ccccc3)on2)cc1 [MMV688514] |  | 3200 ± 300 nM | 5.49 | 17 ± 2.5 µM | 4060 nM | 
O=C(Cn1ccnc1[N+](=O)[O-])NCc1ccccc1 [MMV688773, Benznidazole, reference compound] | > 100 µM |  |  |  |  | IC50 [1, 7]: 300 ± 10 nM; IC50 [1, 8]: 302 nM
Cc1cccnc1NC(=O)c1cccc(OCc2c(C)noc2C)c1 [MMV688793] |  | 360 ± 40 nM | 6.44 | > 100 µM | 2070 nM | 
O=C(NCCc1ccn(-c2ccccc2)n1)C1CCCCC1 [MMV688795] |  | 350 ± 20 nM | 6.45 | > 100 µM | 150 nM | 
O=C(NCc1nnc2n1CCCCC2)c1ccc(-c2ccc(F)cc2)o1 [MMV688796] |  | 30 ± 10 nM | 7.52 | > 100 µM | 100 nM | 
CC1CCCCN1C(=O)NCCc1coc(-c2ccc(F)cc2)n1 (centres unmarked) [MMV688797] |  | 60 ± 20 nM | 7.22 | > 100 µM | 130 nM | 
CS(=O)(=O)c1ccccc1C(=O)N(Cc1ccccc1)c1ccccc1 [MMV688798] |  | 300 ± 25 nM | 6.52 |  | 555 nM | 
Cc1ccc(S(=O)(=O)Nc2ccc(CN3CCN(C(=O)c4cccc(C#N)c4)CC3)cc2)cc1 [MMV689028] |  |  |  | > 100 µM | 140 nM | 
COc1ccc(S(=O)(=O)Nc2ccc(CN3CCN(C(=O)c4cccc(C#N)c4)CC3)cc2)cc1 [MMV689029] |  | 1300 ± 600 nM | 5.88 | > 100 µM | 500 nM | 
Clc1ccc(CN2CCN(C3=NCCN3)CC2)cc1Cl [MMV689060] |  | 2400 ± 60 nM | 5.61 |  | 31600 nM | 
CC(=O)Nc1ccc(-c2noc(CC3CCCN(Cc4cccc(F)c4C)C3)n2)cc1 (centres unmarked) [MMV689061] |  | 1900 ± 100 nM | 5.72 | > 100 µM | 32300 nM | 
COc1ccc(C2=NN(C3CCCCCC3)C(=O)[C@@H]3CC=CC[C@H]23)cc1OCCCCOc1ccc(-c2nn[nH]n2)cc1 [MMV690027] |  | 2800 ± 70 nM | 5.55 | > 100 µM | 20 nM | 
N=C(N)c1ccc(OCCCCCOc2ccc(C(=N)N)cc2)cc1 [Pentamidine, reference compound] | > 100 µM |  |  |  |  | IC50 [1, 7]: 2 ± 0.3 nM; IC50 [1, 8]: 2 nM; IC50 ([1]; Trypanosoma brucei, Table 4, negative log of IC50 in molar, read-out: pIC50 T. b. b. (converted)): 2.24 nM; cidal or static effect after inhibitor removal [5]: static profile
